Here are results for 19 compounds from US10071983B2, “Activatable fluorogenic compounds and uses thereof as near infrared probes” (Ramot at Tel-Aviv University Ltd., priority 2011, dated 2018).

A short description of data set [1]: NIR fluorescence emission spectrum of dye compounds. Format: physicochemical. The conditions noted are these: for λmax: Table 1, λmax (fluorescence emission). An excerpt: (§1) Compound 1 (which generates the dye compound QCy7 deprotonation) was obtained as an orange crystalline powder. FIGS. 4A and 4B present the UV-Vis spectrum of Compound 1 (FIG. 4A), compared to that of the acetate Compound 3 (FIG. 4B). […] The obtained large stokes shift between the excitation and the emission wavelengths of about 150 nm is a desirable feature for fluorescence probes, which assists in increasing the signal-to-noise ratio.
(§2) FIG. 5 presents the data obtained for fluorescence intensity vs. wavelength of standard sample (Cresyl violet; FIG. 5A), and test sample (QCy7; FIG. 5B), at the indicated concentrations. The measurements were performed in a 1 cm cuvette using Fluoromax-3 fluorometer; at an excitation wavelength of 560 nm. Cresyl violet was dissolved in methanol and Compound 1 in PBS 7.4 (just generating QCy7).
(§3) FIG. 8 presents the data obtained for fluorescence intensity vs. wavelength of standard sample (QCy7; FIG. 8A), and test sample (Sulfo-QCy7, generated from Compound 9; FIG. 8B), at the indicated concentrations. The measurements were performed at a 96-wells plate reader using Fluoromax-3 fluorometer; at an excitation wavelength of 560 nm. Both samples were dissolved in PBS 7.4.

Data set [2] is described as follows: NIR fluorescence assay of probe Compound 4 with hydrogen peroxide. On the procedure:
In order to evaluate the NIR fluorescence obtained by probe Compound 4 upon reaction with hydrogen peroxide under physiological conditions, the probe was incubated in PBS 7.4 at 37° C., in the presence and absence of hydrogen peroxide at varying concentrations, and the emitted NIR fluorescence was measured by a spectrophotometer (M2 of Molecular Device). The results, presented in FIG. 20A, indicate full conversion of probe Compound 4 to sulfo-QCy7 within 30 minutes (red plot).
The sensitivity of probe Compound 4 towards detection of hydrogen peroxide was then evaluated.

Data set [3] in a line: In vivo imaging of exogenous hydrogen peroxide (premixed probe injected). On the set-up: species or system mice. The method, then:
Initially, as a simple control experiment, a premixed solution of probe 4 with hydrogen peroxide was injected into the peritoneal cavity, and the mice were imaged in a CRI Maestro™ non-invasive fluorescence imaging system.
Next, it was tested whether probe Compound 4 can be used to differentiate in vivo various concentrations of hydrogen peroxide in order to test the system's sensitivity. Therefore, two different concentrations of hydrogen peroxide were premixed with probe Compound 4; immediately injected intramuscularly, into the leg, and then imaged by the CRI Maestro™ non-invasive fluorescence imaging system.

The subject of data set [4] is endogenously produced hydrogen peroxide. Kind of data set: In vivo imaging of endogenous hydrogen peroxide, LPS-induced acute inflammation. The arrangement: species or system Balb/c mice. On the procedure:
To induce acute inflammation in Balb/c mice, 1 ml (0.1 mg/ml) of LPS (Lipopolysaccharides from Escherichia coli 055:B5, Sigma) was injected into the peritoneal cavity of Balb/c mice as previously described [Lee, D. et al. Nat. Mater. 6, 765-769 (2007)]. Six hours later, additional i.p. injections of 400 μl of 1 mM of the tested probe compound or PBS (as control) were performed. Second control group of mice was injected i.p. with 1 ml of PBS followed by additional i.p. injection of 400 μl PBS. Fifteen minutes later, mice were anesthetized using ketamine (100 mg/kg) and xylazine (12 mg/kg), treated with a depilatory cream (Veet®), and placed inside CRI Maestro non-invasive fluorescence imaging system. Multispectral image-cubes were acquired through 600-800 nm spectral range in 10 nm steps using excitation (595 nm) and emission (635 nm longpass) filter set. Mice autofluorescence and undesired background signals were eliminated by spectral analysis and linear unmixing algorithm. Activated probe-fluorescence unmixed specific signal was quantified as total signal of photons/exposure time (sec). Data is expressed as mean±s.d.
The, the use of probe Compound 4 for visualizing endogenously-produced hydrogen peroxide was tested. […] Mater. 6, 765-9 (2007)]. Mice were injected intraperitoneally (i.p.) with LPS (1 ml of 0.1 mg/ml), followed 6 hours later by additional i.p. injection of probe Compound 4 (400 μl of 1 mM) and were thereafter imaged by the CRI Maestro™ non-invasive fluorescence imaging system.

A short description of data set [5]: NIR fluorescence emission spectrum of dye compounds. Format: physicochemical. The conditions noted are these: PBS 7.4 [50 μM], excitation 570 nm, cutting filter >690 nm.
The nature of data set [6]: UV-Vis absorption spectrum of dye compounds. Format: physicochemical. The conditions noted are these: for λmax: Table 1, first λmax column (absorption peaks).
Source text: as §1
Compound 14 is composed from a phenol latent donor and two different acceptors; a picolinium moiety and an indolium moiety (see, Scheme 3). Deprotonation of the phenolic dye leads to formation of new donor-acceptor pair fluorochrome.
Compound 18 is composed of a phenol latent donor and two identical acceptors based on a picolinium moiety (see, Scheme 4). Deprotonation of the phenolic form leads to formation of new donor-acceptor pair fluorochrome.
Compound 25 is composed of a phenol latent donor and three acceptors; two picolinium moieties and one indolium moiety (see, Scheme 5). Deprotonation of the phenolic compound leads to formation of three resonance donor-two-acceptor structures of new fluorochrome.
The chemical 2D structures and spectroscopic data obtained for exemplary dye molecules according to embodiments of the present invention are presented in Table 1.

Data set [7] is described as follows: Fluorescence quantum yield calculation against a reference dye. It counts as physicochemical. The following applies: PBS 7.4. The method, then: Cresyl-violet-perchlorate (as presented hereinbelow) was chosen as a reference compound for the determination of QCy7 quantum yield.
as §2
Conversion to the absolute quantum yield is achieved through the following equation: ΦX=ΦST(GradX/GradST)(η^2X/η^2ST) where the subscripts ST and X denote standard and test respectively, Φ is the fluorescence quantum yield, Grad the gradient from the plot of integrated fluorescence intensity vs. absorbance (see, FIG. 6), and η the refractive index of the solvents. ΦCresyl-violet=0.55 [Stefan et al. ([…]) J. Phys. Chem. 86, 1738-1742].
QCy7 was chosen as a reference compound for the determination of Sulfo-QCy7 quantum yield.
as §3
The absolute quantum yield was calculated as described hereinabove and found to be: […]

A short description of data set [8]: Aqueous stability in PBS 7.4 at 37° C., NIR emission over 72 hours. Format: physicochemical. The following applies: PBS 7.4 [25 μM]. On the procedure:
The aqueous stability of the cyanine-like dye compound presented herein was tested and compared to that of the cyanine molecule Cy7.
All tested compounds were incubated in PBS 7.4 [25 μM], at 37° C., and their NIR fluorescent emission was monitored over 72 hours. FIG. 15 presents the normalized intensity of NIR fluorescent emission of dyes generated from Compound 9 (green circles; Sulfo-QCy7), Compound 14 (blue diamonds), Compound 18 (red squares), Compound 25 (orange triangles) and Compound 1 (blank navy squares; QCy7) as a function of incubation time.

The nature of data set [9]: pKa measurement by UV-Vis absorbance as a function of pH. Format: physicochemical. The conditions noted are these: buffers at the indicated pH; 50 μM in buffers, phenol form. The method, then:
The pKa values of exemplary compounds according to some embodiments of the present invention, Compounds 14, 18 and 25, was measured by monitoring their UV-Vis absorbance as a function of the environment pH. The tested compounds, at a concentration of 50 μM were dissolved in the respective buffers at the indicated pH and their absorbance was measured.

With `CC(=O)Oc1ccc(/C=C/C2=[N+](C)c3ccccc3C2(C)C)cc1/C=C/C1=[N+](C)c2ccccc2C1(C)C` [Compound 3], the “fluorescence emission in the NIR region of masked derivative” value in data set [1] (PBS 7.4 [100 μM], λex=560 nm) is listed as “did not show any fluorescence emission in the NIR region”.

Turning to `CC1(C)C(/C=C/c2ccc(OCc3ccc(B(O)O)cc3)c(/C=C/C3=[N+](CCCS(=O)(=O)[O-])c4ccccc4C3(C)C)c2)=[N+](CCCS(=O)(=O)[O-])c2ccccc21` [Compound 4], the “NIR fluorescence in the absence of hydrogen peroxide” value in [2] (PBS 7.4, 37° C.) is recorded as “No NIR fluorescence is observed”. Further, the “time to full conversion of probe to sulfo-QCy7” value in data set [2] (probe [50 μM], hydrogen peroxide [50 μM], PBS 7.4, 37° C.) was not above 30 min. In addition, the “detectable hydrogen peroxide concentration” value in [2] (probe [100 μM]) is “below 1 μM”. Also, the “NIR fluorescence in vivo, probe premixed with hydrogen peroxide” value in data set [3] (injected into the peritoneal cavity) is “can generate NIR fluorescence in vivo image”. Moreover, in [3] (injected into the peritoneal cavity, no hydrogen peroxide), the “NIR fluorescence in vivo, probe only” value was “did not show any detectable NIR fluorescence”. For the same compound, in data set [3] (premixed, injected intramuscularly into the leg), the “dependence of NIR fluorescence intensity on hydrogen peroxide concentration in vivo” value was “dependent on the hydrogen peroxide initial concentration”. Besides, the “signal-to-noise ratio of NIR fluorescence intensity vs control group” value in [4] (LPS i.p., probe 400 μl of 1 mM i.p. 6 hours later) is “about 10 fold”. In addition, in data set [4] (LPS i.p., probe i.p. 6 hours later), the “NIR fluorescence signal, LPS-treated vs non-LPS treated mice” value is “significantly greater intensity of NIR fluorescence signal”. In [4] (no LPS), the “NIR fluorescence in mice treated only with probe” value is on record as “slight NIR fluorescence”. Also, the “appearance under NIR imaging camera” value in data set [5] was “clearly transparent”.

In the case of `C[n+]1ccc(/C=C/c2ccc(O)c(/C=C/c3cc[n+](C)cc3)c2)cc1.[I-].[I-]` [Compound 10], the λmax in data set [1] came out at 720 nm.

Consider `C[n+]1ccc(/C=C/c2ccc(O)c(/C=C/c3cc[n+](C)cc3C#N)c2)c(C#N)c1.[I-].[I-]` [Compound 11], for which, in [1], the λmax turned out to be 730 nm.

For `C[n+]1ccc(/C=C/c2ccc(O)c(/C=C/c3cc[n+](C)cc3[N+](=O)[O-])c2)c([N+](=O)[O-])c1.[I-].[I-]` [Compound 12], the figures for the λmax in [6] and in [1] were 350 nm and “No fluores- cence”, respectively.

`C[n+]1ccc(/C=C/c2ccc(O)c(/C=C/c3cc[n+](C)c4ccccc34)c2)c2ccccc21.[I-].[I-]` [Compound 13]: the λmax was 550 nm in [6] and “No fluores- cence” in data set [1].

Consider `C[n+]1ccc(/C=C/c2cc(/C=C/C3=[N+](CCCS(=O)(=O)[O-])c4ccccc4C3(C)C)ccc2O)cc1.[I-]` [Compound 14], for which the “UV-Vis absorption peak maximum” value in [6] (PBS 7.4) is 550 nm. Also, the “fluorescence emission peak in the NIR region” value in [1] (PBS 7.4) amounted to 680 nm. In [1], this compound displayed a λmax of 650 nm. The quantum yield in data set [7] is 17%. Besides, in data set [8], the “aqueous stability compared with Cy7” value was “increase aqueous stability than that of Cy7” and the “loss of NIR fluorescence during incubation period” value is “did not show any loss of NIR fluorescence”. Moreover, the pKa in data set [9] is 2.9.

Consider `CC(C)(C)c1cc(/C=C/c2ccc(O)c(/C=C/c3cc(C(C)(C)C)[o+]c(C(C)(C)C)c3)c2)cc(C(C)(C)C)[o+]1` [Compound 15], for which the λmax result in data set [1] is given as “No fluores- cence”.

On to `C[n+]1ccc(/C=C/c2cc(/C=C/c3cc(C(C)(C)C)[o+]c(C(C)(C)C)c3)ccc2O)cc1.I` [Compound 16], for which the λmax was 580 nm in [6] and 730 nm in data set [1].

For `C[n+]1ccc(/C=C/c2ccc(O)c(/C=C/c3cc[n+](C)cc3S(=O)(=O)[O-])c2)c(S(=O)(=O)[O-])c1` [Compound 17], the λmax in data set [1] was 730 nm. The quantum yield in data set [7] is on record as 2.6%.

As to `CCOC(=O)c1cc(/C=C/c2cc[n+](C)cc2)c(O)c(/C=C/c2cc[n+](C)cc2)c1` [Compound 19], the λmax in data set [1] is reported as 660 nm.

`CCOC(=O)c1cc(/C=C/c2cc[n+](C)c3ccccc23)c(O)c(/C=C/c2cc[n+](C)c3ccccc23)c1` [Compound 20]: the λmax result in data set [1] is listed as “No fluores- cence”.

Regarding `CCOC(=O)c1cc(/C=C/c2cc[n+](C)cc2C#N)c(O)c(/C=C/c2cc[n+](C)cc2C#N)c1` [Compound 21], the λmax in data set [1] is on record as 730 nm.

Turning to `C[n+]1ccc(/C=C/c2cc(C=O)cc(/C=C/c3cc[n+](C)cc3)c2O)cc1` [Compound 22], in [1], the λmax worked out at 650 nm. Besides, the quantum yield in data set [7] is 7%.

Turning to `C[n+]1ccc(/C=C/c2cc([N+](=O)[O-])cc(/C=C/c3cc[n+](C)cc3)c2O)cc1` [Compound 23], the λmax in [1] is recorded as 600 nm.

In turn, `C[n+]1ccc(/C=C/c2cc(Br)cc(/C=C/c3cc[n+](C)cc3)c2O)cc1` [Compound 27] yielded a λmax in data set [1] of 720 nm. Also, the quantum yield in [7] was 2.9%.

`C[n+]1ccc(/C=C/c2cc(C(=O)O)cc(/C=C/c3cc[n+](C)cc3)c2O)cc1` [Compound 29] displayed a λmax in data set [1] of 700 nm. The quantum yield in data set [7] was 2%.

`CC1(C)C(/C=C/c2cc(/C=C/C3=[N+](CCCS(=O)(=O)[O-])c4ccccc4C3(C)C)c(O)c(/C=C/C3=[N+](CCCS(=O)(=O)[O-])c4ccccc4C3(C)C)c2)=[N+](CCCS(=O)(=O)[O-])c2ccccc21` [Compound 30] yielded a λmax in [1] of 710 nm. In addition, the quantum yield in data set [7] is recorded as 16%.

In the case of `C[n+]1ccc(/C=C/c2cc(/C=C/c3cc[n+](C)cc3)c(O)c(/C=C/c3cc[n+](C)cc3)c2)cc1.I.I` [Compound 31], the λmax in [1] was found to be 720 nm.

As a reminder, the pKa is the negative logarithm of the acid dissociation constant. Higher therefore signals a weaker acid or stronger base.
